Patent US8030499B2, “1,3-dihydro-2H-indole-2-one compound and pyrrolidine-2-one compound fused with aromatic heterocycle” (Taisho Pharmaceutical Co., Ltd., priority 2005, dated 2011)

Legend:
[1] = target: T1, human V1b receptor (Homo sapiens, UniProt P47901); assay: V1b receptor binding assay ([3H](Arg8)-vasopressin, crude membranes of CHO cells); settings: receptor binding test, human V1b, CHO cell membranes
T1 construct: expressed in transfected cells; host or cells: CHO cells
T1 sequence (P47901 1-424): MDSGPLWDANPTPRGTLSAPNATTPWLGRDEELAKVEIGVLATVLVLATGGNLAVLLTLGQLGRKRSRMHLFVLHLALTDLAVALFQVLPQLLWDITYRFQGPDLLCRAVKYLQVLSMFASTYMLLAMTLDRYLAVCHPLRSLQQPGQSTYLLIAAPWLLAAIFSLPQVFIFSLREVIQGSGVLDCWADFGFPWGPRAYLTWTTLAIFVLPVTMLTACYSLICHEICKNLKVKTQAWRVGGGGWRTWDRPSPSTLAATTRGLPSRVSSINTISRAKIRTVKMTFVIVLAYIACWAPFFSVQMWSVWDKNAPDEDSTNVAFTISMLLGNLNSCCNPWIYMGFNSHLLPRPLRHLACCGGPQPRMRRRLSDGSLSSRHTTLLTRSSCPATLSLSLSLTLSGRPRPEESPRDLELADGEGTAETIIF
Protocol: (§1) A summary of the methods is given below.
(§2) Each obtained homogenate was centrifuged for 20 minutes at 50,000×g and 4° C., the sediment was resuspended in a 50 mmol/L Tris hydrochloric acid buffer solution (pH7.4, containing 10 mmol/L magnesium chloride and 0.1% bovine serum albumin), which served as a crude membrane preparation. This crude membrane preparation was added with [^3H] (Arg^8) vasopressin (final concentration: 0.1 nmol/L to 0.4 nmol/L), and each test drug (final concentration: 0.1 nmol/L to lμmol/L or 0.01 nmol/L to 0.1 μmol/L) to 22° C. for 90 minutes. After the end of the reaction, the reaction solution was filtrated using a GF/C glass fiber filter, which had been presoaked in 0.3% polyethyleneimine for two hours. After the GF/C glass fiber filter was dried sufficiently, scintillator was added, and the radioactivity on the filter was measured using a liquid scintillation counter. Binding of [^3H] (Arg^8)-vasopressin in the presence of (Arg^8)-vasopressin, in the amounts of 0.1 μmol/L in the V1b receptor binding assay and 5 μmol/L in the V1a and V2 receptor binding assay, were taken as non-specific binding, and the value obtained by subtracting non-specific binding from the total binding in the absence (Arg^8)-vasopressin served as specific binding.
In addition, regarding the V1b receptor binding assay, the value obtained by, subtracting the amount of binding in the presence of 0.1 μmol/L test drug from the total amount of binding, divided by the amount of specific binding, served as the rate of inhibition (% of inhibition) of the test drug at the concentration tested.

[2] = target: T2, human V2 receptor (Homo sapiens, UniProt P30518); assay: V2 receptor binding assay ([3H](Arg8)-vasopressin, crude membranes of 293FT cells); settings: receptor binding test, human V2, 293FT cell membranes
T2 construct: expressed in transfected cells; host or cells: 293FT cells
T2 sequence (P30518 whole entry): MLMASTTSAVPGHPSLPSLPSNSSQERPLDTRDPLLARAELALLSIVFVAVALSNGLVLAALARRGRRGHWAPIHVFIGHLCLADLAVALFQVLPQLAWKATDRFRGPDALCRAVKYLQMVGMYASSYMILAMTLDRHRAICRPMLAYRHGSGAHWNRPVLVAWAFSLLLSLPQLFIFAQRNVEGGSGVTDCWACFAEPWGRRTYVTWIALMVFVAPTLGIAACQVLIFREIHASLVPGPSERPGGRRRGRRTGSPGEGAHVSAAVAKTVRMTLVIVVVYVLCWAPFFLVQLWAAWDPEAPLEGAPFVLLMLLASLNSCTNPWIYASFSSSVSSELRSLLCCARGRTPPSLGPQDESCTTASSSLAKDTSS
Protocol: as §1, §2

[3] = target: T3, human V1a receptor (Homo sapiens, UniProt P37288); assay: V1a receptor binding assay ([3H](Arg8)-vasopressin, crude membranes of 293FT cells); settings: receptor binding test, 293FT cell membranes
T3 construct: expressed in transfected cells; host or cells: 293FT cells
T3 sequence (P37288 whole entry): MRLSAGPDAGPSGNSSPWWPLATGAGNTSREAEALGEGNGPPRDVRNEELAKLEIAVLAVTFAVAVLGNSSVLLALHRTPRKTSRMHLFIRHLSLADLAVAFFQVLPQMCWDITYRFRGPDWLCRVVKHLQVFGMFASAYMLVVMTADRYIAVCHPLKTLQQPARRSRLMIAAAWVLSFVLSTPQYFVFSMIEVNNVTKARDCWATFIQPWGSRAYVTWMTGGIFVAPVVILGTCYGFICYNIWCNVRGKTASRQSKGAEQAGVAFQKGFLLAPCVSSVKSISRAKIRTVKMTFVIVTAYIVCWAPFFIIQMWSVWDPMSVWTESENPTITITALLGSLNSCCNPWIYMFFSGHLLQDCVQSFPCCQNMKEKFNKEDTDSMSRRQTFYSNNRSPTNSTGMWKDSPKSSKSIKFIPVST
Protocol: as §1, §2

IC50 [1]	IC50 [2]	IC50 [3]	Structure (SMILES)
0.0023 µM	3.37 µM	0.504 µM	COc1ccc(S(=O)(=O)N2C(=O)C(c3cc(C)ccc3OC)(N3C[C@H](O)C[C@H]3C(=O)N(C)C)c3cc(Cl)ccc32)c(OC(F)(F)F)c1 (single isomer, unassigned) [Example 103]
0.0029 µM	> 10 µM	0.653 µM	COc1ccc(S(=O)(=O)N2C(=O)C(c3cc(C)ccc3OC)(N3CCCC[C@H]3C(=O)N(C)C)c3cc(Cl)ccc32)c(OC(F)(F)F)c1 (single isomer, unassigned) [Example 116]
0.011 µM	> 10 µM	6.79 µM	COc1ccc(S(=O)(=O)N2C(=O)C(c3cc(C)ccc3OC)(N3C[C@H](O)C[C@H]3C(=O)N(C)C)c3cc(Br)cnc32)c(OC(F)(F)F)c1 (single isomer, unassigned) [Example 120]
0.015 µM	> 10 µM	8.24 µM	COc1ccc(S(=O)(=O)N2C(=O)C(c3cc(C)ccc3OC)(N3C[C@H](O)C[C@H]3C(=O)N(C)C)c3cc(C#N)ccc32)c(OC(F)(F)F)c1 (single isomer, unassigned) [Example 126]
0.0011 µM	3.19 µM	0.355 µM	COc1ccc(S(=O)(=O)N2C(=O)C(c3cc(C)ccc3OC)(N3C[C@H](OCCCN(C)C)C[C@H]3C(=O)N(C)C)c3cc(Cl)ccc32)c(OC(F)(F)F)c1 (single isomer, unassigned) [Example 140]
0.0012 µM	5.65 µM	1.11 µM	COc1ccc(S(=O)(=O)N2C(=O)C(c3cc(C)ccc3OC)(N3C[C@H](OCC(N)=O)C[C@H]3C(=O)N(C)C)c3cc(Cl)ccc32)c(OC(F)(F)F)c1 (single isomer, unassigned) [Example 147]
0.00056 µM	4.05 µM	0.0651 µM	COc1ccc(S(=O)(=O)N2C(=O)C(c3cccnc3OC)(N3C[C@H](O)C[C@H]3C(=O)N(C)C)c3cc(Cl)ccc32)c(OC(F)F)c1 (single isomer, unassigned) [Example 170]
0.0018 µM	3.34 µM	0.293 µM	COc1ccc(S(=O)(=O)N2C(=O)C(c3cc(N4CCOCC4)ccc3OC)(N3C[C@H](O)C[C@H]3C(=O)N(C)C)c3cc(Cl)ccc32)c(OC(F)(F)F)c1 (single isomer, unassigned) [Example 191]
0.0043 µM	> 10 µM	0.792 µM	COc1ccc(S(=O)(=O)N2C(=O)C(c3cc(-c4ccncc4)ccc3OC)(N3C[C@H](O)C[C@H]3C(=O)N(C)C)c3cc(Cl)ccc32)c(OC(F)(F)F)c1 (single isomer, unassigned) [Example 192]
0.00056 µM	> 10 µM	0.573 µM	COc1ccc(S(=O)(=O)N2C(=O)C(c3cc(CN(C)C)ccc3OC)(N3C[C@H](O)C[C@H]3C(=O)N(C)C)c3cc(Cl)ccc32)c(OC(F)(F)F)c1 (single isomer, unassigned) [Example 195 A]
0.00096 µM	3.1 µM	0.404 µM	COc1ccc(S(=O)(=O)N2C(=O)C(c3cc(CCO)ccc3OC)(N3C[C@H](O)C[C@H]3C(=O)N(C)C)c3cc(Cl)ccc32)c(OC(F)(F)F)c1 (single isomer, unassigned) [Example 217]
0.00032 µM	5.05 µM	0.101 µM	COc1ccc(S(=O)(=O)N2C(=O)C(c3cc(CCN4CCCCC4)ccc3OC)(N3C[C@H](O)C[C@H]3C(=O)N(C)C)c3cc(Cl)ccc32)c(OC(F)(F)F)c1 (single isomer, unassigned) [Example 225]
